Reference: US20220192179A1, “BIOMIMETIC ICE-INHIBITING MATERIAL AND CRYOPRESERVATION SOLUTION COMPRISING SAME” (priority 2019, published 2022)
Peptide text beside a SMILES is read from it.

Assays:
[1] = Ice topography (DIS) observation and thermal hysteresis (TH) measurement, nanoliter osmometer; assay type: physicochemical; conditions: deionized aqueous solution; for thermal hysteresis (TH): nanoliter osmometer; for modification effect on the topography of ice crystals (DIS observation): supercooling degree of −0.1 °C
Procedure: DIS observation and TH measurement were performed by using a nanoliter osmometer. A capillary was first melt with the outer flame of a alcohol burner, and simultaneously stretched to produce a capillary with a very fine pore size, and the capillary was then linked to a microsyringe; an immersion oil with higher viscosity was injected into a disk with micron-sized holes, and an aqueous solution in which the material was dissolved was injected into the microholes by using a microsyringe; the droplet was quickly frozen by regulating the temperature, and then slowly heated to give a single crystal ice, the single crystal ice was slowly cooled at the precision of 0.01° C., and the DIS observation and TH test were performed by using a microscope provided with a high-speed camera.

[2] = Ice recrystallization inhibition (IRI) activity, splat-freezing method; assay type: physicochemical; conditions: for MLGS (%) relative to that of DPBS, compared with the unbound components: 20 μL DPBS solution, same concentration
Procedure: The IRI activity was assessed using “splat-freezing method”, wherein a sample was dissolved and dispersed into a DPBS solution, and 10-30 μL of the resulting solution was added dropwise onto the surface of a clean silicon disk pre-cooled at -60° C. at a height of no less than 1.0 m; the solution was slowly heated to -6° C. at a speed of 10° C. ·min^−1 by using a hot-cold stage, and was annealed for 30 min at this temperature; the sizes of ice crystals were observed and recorded by using a polarizing microscope and a high-speed camera. The hot-cold stage was sealed to ensure that the internal humidity was about 50%.
The IRI activity was assessed using “splat-freezing method”, wherein a sample was dissolved and dispersed into a DPBS solution, and 10-30 μL of the resultant solution was added dropwise onto the surface of a clean silicon disk precooled at −60° C. at a height of no less than 1.0 m; the solution was slowly heated to −6° C. at a speed of 10° C./min by using a hot-cold stage, and was annealed for 30 min at this temperature; the sizes of ice crystals were observed and recorded by using a polarizing microscope and a high-speed camera. The hot-cold stage was sealed to ensure that the internal humidity was about 50%.
The ice recrystallization inhibition (IRI) activity was assessed using “splat-freezing method”, wherein the two PVAs were separately dissolved and dispersed into DPBS solutions, and 10-30 μL of the resulting solution was added dropwise onto the surface of a clean silicon disk pre-cooled at −60° C. at a height of no less than 1.0 m; the solution was slowly heated to −6° C. at a speed of 10° C.·min^−1 by using a hot-cold stage, and was annealed for 30 min at this temperature; the sizes of ice crystals were observed and recorded by using a polarizing microscope and a high-speed camera. The hot-cold stage was sealed to ensure that the internal humidity was about 50%.

| Compound | thermal hysteresis (TH) [1] | modification effect on the topography of ice crystals (DIS observation) [1] | MLGS (%) relative to that of DPBS, compared with the unbound components [2] | ability to inhibit the growth of ice crystals ([2]; result in words) | modification effect on the topography of ice crystals (DIS observation) ([1]; listed as compound of formula (9) where R is —CH2CH3) | modification effect on the topography of ice crystals (DIS observation) ([1]; listed as compound of formula (9) where R is —CH3) |
| --- | --- | --- | --- | --- | --- | --- |
| CC(O)C(NC(=O)[C@@H](O)[C@H](O)[C@@H](O)[C@@H](O)CO)C(=O)O (stereo partly drawn) [GDL-L-Thr] | No TH was determined | weak modification effect on the topography of ice crystals | obviously smaller than those of the DPBS solutions of GDL and amino acids at the same concentration | good capability of inhibiting the growth of ice crystals | – | – |
| C[C@@H](O)[C@H](N)C(=O)N[C@@H](CCCNC(=N)N)C(=O)O [TR, L-Thr-L-Arg] (H-Thr-Arg-OH) | No TH was determined | weak modification effect on the topography of ice crystals | obviously smaller than that of the DPBS solutions of arginine and threonine at the same concentration | – | – | – |
| NC(=O)CN(CCC(=O)O)C(=O)CN(CCC(=O)O)C(=O)CN(CCC(=O)O)C(=O)CN(CCC(=O)O)C(=O)CN(CCC(=O)O)C(=O)CNCCC(=O)O [peptoid where R was —CH2CH2COOH] | – | no modification effect on the topography of ice crystals | – | – | – | – |
| CCNCC(=O)N(CC)CC(=O)N(CC)CC(=O)N(CC)CC(=O)N(CC)CC(=O)N(CC)CC(N)=O [peptoid where R was —CH2CH3] | no TH | rather obvious modification effects on the topography of ice crystals | – | – | excellent modification effect on the topography of ice crystals | – |
| CNCC(=O)N(C)CC(=O)N(C)CC(=O)N(C)CC(=O)N(C)CC(=O)N(C)CC(N)=O [peptoid where R was —CH3] | no TH | rather obvious modification effects on the topography of ice crystals | – | – | – | excellent modification effect on the topography of ice crystals |
| GDL-L-Ser | – | – | obviously smaller than those of the DPBS solutions of GDL and amino acids at the same concentration | – | – | – |
| GDL-L-Val | – | – | obviously smaller than those of the DPBS solutions of GDL and amino acids at the same concentration | – | – | – |
